Experimental data from the Kinase Knowledgebase extract (Sharma et al. 2016).
pIC50: −log10 of the molar value.

molecular target: PIK3CG (human) (UniProt P48736); test: Assessment of PIK3CG Kinase Activity
Sequence (P48736 whole entry, looked up): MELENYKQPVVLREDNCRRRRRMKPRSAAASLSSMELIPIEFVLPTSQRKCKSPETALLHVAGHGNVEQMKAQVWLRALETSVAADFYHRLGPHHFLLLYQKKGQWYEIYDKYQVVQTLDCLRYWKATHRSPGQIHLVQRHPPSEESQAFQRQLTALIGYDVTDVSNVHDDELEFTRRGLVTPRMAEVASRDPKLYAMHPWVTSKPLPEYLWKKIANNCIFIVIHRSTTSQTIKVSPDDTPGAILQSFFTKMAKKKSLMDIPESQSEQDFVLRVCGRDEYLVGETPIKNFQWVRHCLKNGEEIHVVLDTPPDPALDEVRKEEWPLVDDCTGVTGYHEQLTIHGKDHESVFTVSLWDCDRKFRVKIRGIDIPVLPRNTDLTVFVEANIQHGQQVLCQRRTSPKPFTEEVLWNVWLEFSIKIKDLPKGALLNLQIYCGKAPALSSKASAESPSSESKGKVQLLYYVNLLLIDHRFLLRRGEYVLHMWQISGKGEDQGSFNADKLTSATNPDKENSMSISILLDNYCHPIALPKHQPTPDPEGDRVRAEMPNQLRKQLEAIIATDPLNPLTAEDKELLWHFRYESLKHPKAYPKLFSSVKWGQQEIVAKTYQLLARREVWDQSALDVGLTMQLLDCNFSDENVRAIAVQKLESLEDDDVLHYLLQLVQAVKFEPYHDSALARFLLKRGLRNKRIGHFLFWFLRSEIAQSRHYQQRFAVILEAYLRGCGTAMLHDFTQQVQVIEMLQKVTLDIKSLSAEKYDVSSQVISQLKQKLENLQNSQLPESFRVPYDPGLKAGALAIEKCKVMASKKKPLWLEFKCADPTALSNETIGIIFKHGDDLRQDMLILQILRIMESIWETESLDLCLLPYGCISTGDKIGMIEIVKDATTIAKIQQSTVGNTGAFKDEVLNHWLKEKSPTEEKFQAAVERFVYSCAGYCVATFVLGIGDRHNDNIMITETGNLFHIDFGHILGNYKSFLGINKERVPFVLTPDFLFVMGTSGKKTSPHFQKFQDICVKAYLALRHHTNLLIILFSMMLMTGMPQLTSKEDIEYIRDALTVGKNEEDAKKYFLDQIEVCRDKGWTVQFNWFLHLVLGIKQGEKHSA

| SMILES | pIC50 |
| --- | --- |
| CC(=O)Nc1nc2c(s1)-c1c(cnn1-c1ccc(C(=O)N[C@H](C(N)=O)[C@@H](C)O)cc1Cl)CC2 | > 6.10 |
| CC(=O)Nc1nc2c(s1)-c1nc(C3CCCCC3)ncc1CC2 | > 6.10 |
| COCc1nn(-c2ccccc2C(F)(F)F)c2c1CCc1nc(NC(C)=O)sc1-2 | > 6.10 |
| CC(=O)Nc1nc2c(s1)-c1c(cnn1-c1ccc(C(=O)N3CCC(C(N)=O)CC3)cc1)CC2 | > 6.10 |
| CC(=O)Nc1nc2c(s1)-c1c(c(NC(=O)OC(C)C)nn1-c1ccccc1Cl)CC2 | > 6.10 |
| CC(=O)Nc1nc2c(s1)-c1c(cnn1-c1ccc(CC(=O)N3CCC(C(N)=O)CC3)cc1)CC2 | > 6.10 |
| CC(=O)Nc1nc2c(s1)-c1c(cnn1-c1ccc(C(=O)NC3CCN(C)CC3)cc1)CC2 | > 6.10 |
| CC(=O)Nc1nc2c(s1)-c1c(cnn1-c1ccc(S(=O)(=O)N3CCN(C)CC3)cc1)CC2 | > 6.10 |
| CC(=O)Nc1nc2c(s1)-c1c(cnn1-c1ccc(C(=O)N3CCc4ccccc4C3)cc1)CC2 | > 6.10 |
| CC(=O)Nc1nc2c(s1)-c1c(cnn1C(N)=O)CC2 | > 6.10 |
| CC(=O)Nc1nc2c(s1)-c1c(c(C(C)C)nn1-c1ccccc1Br)CC2 | > 6.10 |
| NC(=O)[C@@H]1CCCN1CC(=O)Nc1nc2c(s1)-c1c(cnn1-c1ccccc1)CC2 | > 6.10 |
| CC(=O)Nc1nc2c(s1)-c1c(cnn1-c1ccc(C(=O)Nc3ccc(N4CCN(C)CC4)cc3)cc1Cl)CC2 | > 6.10 |
| C#CCN(C(=O)OC(C)(C)C)c1ncc2c(n1)-c1sc(NC(C)=O)nc1CC2 | > 6.10 |
| O=C(Nc1nc2c(s1)-c1nc(-c3ccccc3)ncc1CC2)N1CCCC1 | > 6.10 |
| CCN(CCO)C(=O)c1nn(-c2ccccc2)c2c1CCc1nc(NC(C)=O)sc1-2 | > 6.10 |
| CC(=O)Nc1nc2c(s1)-c1c(c(-c3cn(C)cn3)nn1-c1ccccc1C(F)(F)F)CC2 | > 6.10 |
| CC(=O)Nc1nc2c(s1)-c1c(cnn1C(=O)c1ccccc1)CC2 | > 6.10 |
| CC(=O)Nc1nc2c(s1)-c1c(cnn1-c1ccc(C(=O)N[C@H]3CC[C@@H](N4CCC(C)(C)CC4)CC3)cc1)CC2 | > 6.10 |
| CC(=O)Nc1nc2c(s1)-c1nn(C(=O)c3ccc(Cl)cc3)cc1CC2 | > 6.10 |
| CC(=O)Nc1nc2c(s1)-c1c(cnn1-c1ccc(C(=O)NCCCC(N)=O)cc1Cl)CC2 | > 6.10 |
| CC(=O)Nc1nc2c(s1)-c1c(cnn1-c1ccccc1F)C2 | > 6.10 |
| CC(=O)Nc1nc2c(s1)-c1c(cnn1CCc1ccccc1)CC2 | > 6.10 |
| CC(=O)Nc1nc2c(s1)-c1c(cnn1-c1ccc(C(=O)NC(C)CO)cc1)CC2 (stereo not drawn) | > 6.10 |
| CN(C)CCN(C)C(=O)Nc1nc2c(s1)-c1c(cnn1-c1ccccc1Cl)C2 | > 6.10 |

| SMILES | pIC50 |
| --- | --- |
| CC(=O)Nc1nc2c(s1)-c1c(cnn1-c1ccc(S(C)(=O)=O)cc1)C2 | > 6.10 |
| CCCn1ncc2c1-c1sc(NC(C)=O)nc1CC2 | > 6.10 |
| CC(=O)Nc1nc2c(s1)-c1c(cnn1-c1ccc(C(=O)NCc3cccnc3)cc1)CC2 | > 6.10 |
| CC(=O)Nc1nc2c(s1)-c1c(cnn1-c1ccccc1C(C)C)C2 | > 6.10 |
| CC(=O)Nc1nc2c(s1)-c1c(cnn1-c1ccc(C(=O)N3CCC(NC(=O)c4ccccc4)CC3)cc1)CC2 | > 6.10 |
| CC(=O)Nc1nc2c(s1)-c1c(c(-c3ccoc3)nn1-c1ccccc1C)CC2 | > 6.10 |
| CC(=O)Nc1nc2c(s1)-c1c(cnn1-c1ccc(CC(=O)NCCC3CCCN3C)cc1)CC2 (stereo not drawn) | > 6.10 |
| CCCN(CC)C(=O)Cc1ccc(-n2ncc3c2-c2sc(NC(C)=O)nc2CC3)cc1 | > 6.10 |
| CC(=O)Nc1nc2c(s1)-c1c(cnn1-c1ccccc1Cl)CC2 | > 6.10 |
| CC(=O)Nc1nc2c(s1)-c1c(cnn1-c1ccc(C(=O)N[C@H](C(N)=O)c3ccccc3)cc1Cl)CC2 | > 6.10 |
| CC(=O)Nc1nc2c(s1)-c1c(c([C@H]3CCCO3)nn1-c1ccccc1Br)CC2 | > 6.10 |
| CC(=O)Nc1nc2c(s1)-c1c(c(-c3ccco3)nn1-c1ccccc1C(F)(F)F)CC2 | > 6.10 |
| CC(=O)Nc1nc2c(s1)-c1nc(N(C)CCCN(C)C)ncc1CC2 | > 6.10 |
| CC(=O)Nc1nc2c(s1)-c1c(c([C@H]3CCCO3)nn1-c1ccc(C(=O)NCc3ccncc3)cc1Cl)CC2 | > 6.10 |
| COc1ccc(-n2ncc3c2-c2sc(NC(C)=O)nc2CCC3)cc1 | > 6.10 |
| CC(=O)Nc1nc2c(s1)-c1c(cnn1-c1ccccc1C(F)(F)F)C2 | > 6.10 |
| CC(=O)Nc1nc2c(s1)-c1c(c(-c3ccoc3)nn1-c1ccccc1)CC2 | > 6.10 |
| CC(=O)Nc1nc2c(s1)-c1c(cnn1-c1c(Cl)cccc1Cl)C2 | > 6.10 |
| CCS(=O)(=O)c1ncc2c(n1)-c1sc(NC(C)=O)nc1CC2 | > 6.10 |
| CC(=O)Nc1nc2c(s1)-c1c(cnn1-c1ccc(CC(=O)N3CCS(=O)(=O)CC3)cc1)CC2 | > 6.10 |
| CC(=O)Nc1nc2c(s1)-c1c(c(-c3ccccc3)nn1-c1ccccc1C)CC2 | > 6.10 |
| COc1ccccc1-n1nc(-c2ccco2)c2c1-c1sc(NC(C)=O)nc1CC2 | > 6.10 |
| CC(=O)Nc1nc2c(s1)-c1c(cnn1-c1ccc(C(=O)N[C@@H](Cc3ccccc3)C(N)=O)cc1Cl)CC2 | > 6.10 |
| CC(=O)Nc1nc2c(s1)-c1c(c([C@@H]3CCCO3)nn1-c1ccccc1Cl)CC2 | > 6.10 |
| CNC(=O)c1nn(-c2ccccc2Cl)c2c1CCc1nc(NC(C)=O)sc1-2 | > 6.10 |

| SMILES | pIC50 |
| --- | --- |
| CC(=O)Nc1nc2c(s1)-c1c(cnn1-c1ccc(CC(=O)N3CCN(c4ccncc4)CC3)cc1)CC2 | > 6.10 |
| CC(=O)Nc1nc2c(s1)-c1c(cnn1-c1cccc(Cl)c1)CC2 | > 6.10 |
| CC(=O)Nc1nc2c(s1)-c1c(cnn1-c1ccc(C(=O)N(C)CC(=O)N(C)C)cc1)CC2 | > 6.10 |
| CC(=O)Nc1nc2c(s1)-c1c(cnn1-c1ccc(C(=O)NCc3ccncc3)cc1)CC2 | > 6.10 |
| CC(=O)Nc1nc2c(s1)-c1c(cnn1-c1ccc(CC(=O)N(C)Cc3ccccn3)cc1)CC2 | > 6.10 |
| CCN(CC)C(=O)C1CCCCN1C(=O)c1ccc(-n2ncc3c2-c2sc(NC(C)=O)nc2CC3)cc1 (stereo not drawn) | > 6.10 |
| CCSc1ncc2c(n1)-c1sc(NC(C)=O)nc1CC2 | > 6.10 |
| CC(=O)Nc1nc2c(s1)-c1c(cnn1-c1ccc(C(=O)NCc3ccccn3)cc1)CC2 | > 6.10 |
| CC(=O)Nc1nc2c(s1)-c1c(cnn1-c1ccc(C(=O)NCc3cccc(N4CCNC4=O)c3)cc1)CC2 | > 6.10 |
| CC(=O)Nc1nc2c(s1)-c1nc(C3CC3)ncc1CC2 | > 6.10 |
| CC(=O)Nc1nc2c(s1)-c1c(cnn1-c1ccc(C(=O)NCC(F)(F)F)cc1)CC2 | > 6.10 |
| CC(=O)Nc1nc2c(s1)-c1c(c(-c3cccnc3)nn1-c1ccccc1Cl)CC2 | > 6.10 |
| CC(=O)Nc1nc2c(s1)-c1c(cnn1-c1ccc(S(=O)(=O)N3CCCCC3)cc1)CC2 | > 6.10 |
| CC(=O)Nc1nc2c(s1)-c1c(cnn1-c1cccc(C(=O)O)c1)CC2 | > 6.10 |
| CC(=O)Nc1nc2c(s1)-c1c(cnn1-c1ccc(C(=O)N[C@H]3CC[C@H](N(C)C)CC3)cc1)CC2 | > 6.10 |
| CC(=O)Nc1nc2c(s1)-c1c(cnn1-c1ccc(C(=O)N[C@@H](CCC(=O)O)C(N)=O)cc1Cl)CC2 | > 6.10 |
| CC(=O)Nc1nc2c(s1)-c1c(cnn1-c1ccc(C(=O)N3CCC[C@H]3C(=O)O)cc1)CC2 | > 6.10 |
| COC(=O)c1nn(-c2ccccc2C(F)(F)F)c2c1CCc1nc(NC(C)=O)sc1-2 | > 6.10 |
| COCc1nn(-c2ccccc2)c2c1CCc1nc(NC(C)=O)sc1-2 | > 6.10 |
| CC(=O)Nc1nc2c(s1)-c1c(c(C)nn1-c1ccccc1Cl)CC2 | > 6.10 |
| Nc1ncc2c(n1)-c1sc(N)nc1CC2 | > 6.10 |
| CC(=O)Nc1nc2c(s1)-c1c(cnn1-c1ccc(C(=O)N[C@H](Cc3cnc[nH]3)C(N)=O)cc1Cl)CC2 | > 6.10 |
| CCN(CCO)C(=O)c1ccc(-n2ncc3c2-c2sc(NC(C)=O)nc2CC3)cc1 | > 6.10 |
| CCCn1cc2c(n1)-c1sc(NC(C)=O)nc1CC2 | > 6.10 |
| CC(=O)Nc1nc2c(s1)-c1c(c(-c3ccccc3)nn1-c1ccccc1Br)CC2 | > 6.10 |

| SMILES | pIC50 |
| --- | --- |
| CNC(=O)Nc1nn(-c2ccccc2Cl)c2c1CCc1nc(NC(C)=O)sc1-2 | > 6.10 |
| CC(=O)Nc1nc2c(s1)-c1c(cnn1C(C)C)CC2 | > 6.10 |
| COCc1nn(-c2ccc(C(=O)N[C@H]3CC[C@@H](N4CCCC4)CC3)cc2Cl)c2c1CCc1nc(NC(C)=O)sc1-2 | > 6.10 |
| CC(=O)Nc1nc2c(s1)-c1c(cnn1-c1cccc(C)c1)C2 | > 6.10 |
| CC(=O)Nc1nc2c(s1)-c1nc(C(C)(C)C)ncc1CC2 | > 6.10 |
| CC(=O)Nc1nc2c(s1)-c1c(c(-c3ccco3)nn1-c1ccc(C(=O)NC3CCN(C)CC3)cc1Cl)CC2 | > 6.10 |
| CC[C@H](NC(=O)c1ccc(-n2ncc3c2-c2sc(NC(C)=O)nc2CC3)c(Cl)c1)C(N)=O | > 6.10 |
| CC(=O)Nc1nc2c(s1)-c1c(cnn1-c1ccc(Cl)cc1)C2 | > 6.10 |
| CC(=O)Nc1nc2c(s1)-c1c(cnn1-c1cccc(C(F)(F)F)c1)CC2 | > 6.10 |
| CC(=O)Nc1nc2c(s1)-c1c(cnn1-c1ccc(C(=O)NCC3OCCO3)cc1)CC2 | > 6.10 |
| CC(=O)Nc1nc2c(s1)-c1c(cnn1-c1ccc(C(=O)NCc3ccnn3C)cc1)CC2 | > 6.10 |
| CC(=O)Nc1nc2c(s1)-c1c(c(C(=O)N(C)C)nn1-c1ccccc1Cl)CC2 | > 6.10 |
| CC(=O)Nc1nc2c(s1)-c1c(cnn1-c1ccc(C(=O)NCc3ccccc3C(N)=O)cc1)CC2 | > 6.10 |
| CC(=O)Nc1nc2c(s1)-c1c(cnn1-c1ccc(C(=O)N[C@@H](Cc3ccc4ccccc4c3)C(N)=O)cc1Cl)CC2 | > 6.10 |
| CCC(=O)Nc1nc2c(s1)-c1c(cnn1-c1ccccc1)CC2 | > 6.10 |
| C#CCNC(=O)Cc1ccc(-n2ncc3c2-c2sc(NC(C)=O)nc2CC3)cc1 | > 6.10 |
| CC(=O)Nc1nc2c(s1)-c1c(cnn1-c1ccc(C(=O)N3C[C@@H](C)O[C@@H](C)C3)cc1Cl)CC2 | > 6.10 |
| CC(=O)Nc1nc2c(s1)-c1c(c(C(C)C)nn1-c1ccccc1Cl)CC2 | > 6.10 |
| CC(=O)Nc1nc2c(s1)-c1c(cnn1-c1ccc(C(=O)Nc3ccc(C4CCN(C)CC4)cc3)cc1Cl)CC2 | > 6.10 |
| CC(=O)Nc1nc2c(s1)-c1c(c(-c3ccoc3)nn1-c1ccc(Cl)cc1)CC2 | > 6.10 |
| CC(=O)Nc1nc2c(s1)-c1c(cnn1-c1ccc(CC(=O)N3CCC(N4CCNC4=O)CC3)cc1)CC2 | > 6.10 |
| CC(=O)Nc1nc2c(s1)-c1c(cnn1-c1ccc(C(=O)N(C)Cc3ccccn3)cc1)CC2 | > 6.10 |
| CC(=O)Nc1nc2c(s1)-c1nn(C3C=CCCC3)cc1CC2 (stereo not drawn) | > 6.10 |
